According to US9670161B2, “5-fluoro-N-(pyridin-2-yl)pyridin-2-amine derivatives containing a sulfone group” (BAYER PHARMA AKTIENGESELLSCHAFT, priority 2012, dated 2017):

Assays:
[1] = target: T1, CDK2/CycE (Homo sapiens (Human), UniProt P24941); assay: CDK2/CycE kinase assay (TR-FRET, 10 μM ATP); type: biochemical; conditions: Method 2a
Source text: 2a. CDK2/CycE Kinase Assay:
CDK2/CycE-inhibitory activity of compounds of the present invention was quantified employing the CDK2/CycE TR-FRET assay as described in the following paragraphs:
(§1) Recombinant fusion proteins of GST and human CDK2 and of GST and human CycE, expressed in insect cells (Sf9) and purified by Glutathion-Sepharose affinity chromatography, were purchased from ProQinase GmbH (Freiburg, Germany). As substrate for the kinase reaction biotinylated peptide biotin-Ttds-YISPLKSPYKISEG (C-terminus in amid form) was used which can be purchased e.g. form the company JERINI Peptide Technologies (Berlin, Germany).
(§2) For the assay 50 nl of a 100 fold concentrated solution of the test compound in DMSO was pipetted into a black low volume 384 well microtiter plate (Greiner Bio-One, Frickenhausen, Germany), 2 μl of a solution of CDK2/CycE in aqueous assay buffer [50 mM Tris/HCl pH 8.0, 10 mM MgCl2, 1.0 mM dithiothreitol, 0.1 mM sodium ortho-vanadate, 0.01% (v/v) Nonidet-P40 (Sigma)] were added and the mixture was incubated for 15 min at 22° C. to allow pre-binding of the test compounds to the enzyme before the start of the kinase reaction. Then the kinase reaction was started by the addition of 3 μl of a solution of adenosine-tri-phosphate (ATP, 16.7 μM=>final conc. in the 5 μl assay volume is 10 μM) and substrate (1.25 μM=>final conc. in the 5 μl assay volume is 0.75 μM) in assay buffer and the resulting mixture was incubated for a reaction time of 25 min at 22° C. The concentration of CDK2/CycE was adjusted depending of the activity of the enzyme lot and was chosen appropriate to have the assay in the linear range, typical concentrations were in the range of 130 ng/mL. The reaction was stopped by the addition of 5 μl of a solution of TR-FRET detection reagents (0.2 μM streptavidine-XL665 [Cisbio Bioassays, Codolet, France] and 1 nM anti-RB(pSer807/pSer811)-antibody from BD Pharmingen [#558389] and 1.2 nM LANCE EU-W1024 labeled anti-mouse IgG antibody [Perkin-Elmer, product no. AD0077]) in an aqueous EDTA-solution (100 mM EDTA, 0.2% (w/v) bovine serum albumin in 100 mM HEPES/NaOH pH 7.0).
(§3) The resulting mixture was incubated 1 h at 22° C. to allow the formation of complex between the phosphorylated biotinylated peptide and the detection reagents. Subsequently the amount of phosphorylated substrate was evaluated by measurement of the resonance energy transfer from the Eu-chelate to the streptavidine-XL. Therefore, the fluorescence emissions at 620 nm and 665 nm after excitation at 350 nm was measured in a TR-FRET reader, e.g. a Rubystar (BMG Labtechnologies, Offenburg, Germany) or a Viewlux (Perkin-Elmer). The ratio of the emissions at 665 nm and at […] was taken as the measure for the amount of phosphorylated substrate. The data were normalised (enzyme reaction without inhibitor=0% inhibition, all other assay components but no enzyme=100% inhibition).

[2] = target: T1, CDK2/CycE; assay: CDK2/CycE high ATP kinase assay (TR-FRET, 2 mM ATP); type: biochemical; conditions: Method 2b
Description: 2b. CDK2/CycE High ATP Kinase Assay
CDK2/CycE-inhibitory activity of compounds of the present invention at 2 mM adenosine-tri-phosphate (ATP) was quantified employing the CDK2/CycE TR-FRET (TR-FRET=Time Resolved Fluorescence Energy Transfer) assay as described in the following paragraphs.
as §1, with “were purchase” for “were purchased”, “JERINI peptide technologies” for “JERINI Peptide Technologies”
as §2, with “ATP (3.33 mM=>final” for “of adenosine-tri-phosphate (ATP, 16.7 μM=>final”, “2 mM)” for “10 μM)”, “15 ng/ml.” for “130 ng/mL.”, “AD0077, as an alternative a Terbium-cryptate-labeled anti-mouse IgG antibody from Cisbio Bioassays can be used])” for “AD0077])”
as §3, with “350 nm were measured in” for “350 nm was measured in”

Row | Structure (SMILES) | IC50 [1] | IC50 [2]
1 | COc1cc(F)ccc1-c1cc(Nc2cc(CS(C)(=O)=O)ccn2)ncc1F [Example 1, 5-Fluoro-4-(4-fluoro-2-methoxyphenyl)-N-{4-[(methylsulfonyl)methyl]pyridin-2-yl}pyridin-2-amine] | 0.17 µM | 2.18 µM
2 | COc1cc(F)ccc1-c1cc(Nc2cc(CS(C)(=O)=O)cc(C)n2)ncc1F [Example 2, 5-Fluoro-4-(4-fluoro-2-methoxyphenyl)-N-{6-methyl-4-[(methylsulfonyl)methyl]pyridin-2-yl}pyridin-2-amine] | 0.07 µM | 0.625 µM
3 | COc1cc(F)ccc1-c1cc(Nc2cc(CS(C)(=O)=O)cc(F)n2)ncc1F [Example 3, 5-Fluoro-4-(4-fluoro-2-methoxyphenyl)-N-{6-fluoro-4-[(methylsulfonyl)methyl]pyridin-2-yl}pyridin-2-amine] | 0.065 µM | 0.787 µM
4 | COc1cc(F)ccc1-c1cc(Nc2cc(CS(C)(=O)=O)cc(C(F)(F)F)n2)ncc1F [Example 4, 5-Fluoro-4-(4-fluoro-2-methoxyphenyl)-N-{4-[(methylsulfonyl)methyl]-6-(trifluoromethyl)pyridin-2-yl}pyridin-2-amine] | 0.052 µM | 0.169 µM
5 | COc1cc(F)ccc1-c1cc(Nc2cc(CS(C)(=O)=O)cc(C(F)F)n2)ncc1F [Example 5, N-{6-(Difluoromethyl)-4-[(methylsulfonyl)methyl]pyridin-2-yl}-5-fluoro-4-(4-fluoro-2-methoxyphenyl)pyridin-2-amine] | 0.007 µM | 0.103 µM
